Patent US9340575B2, “Agonists and antagonists of the urotensinergic system” (INSTITUT NATIONAL DE LA RECHERCHE SCIENTIFIQUE, priority 2011, dated 2016)
Square brackets hold non-standard residues; d marks the D form. Peptide text beside a SMILES is read from it. pGlu = O=C1CC[CH](C(=O)O)N1

Tests used:
Format in all cases: cell-based
rat thoracic aorta rings [1] = assay: Effect on ET-1-induced contraction of rat aortic ring; conditions: without [Bip^4]URP
Protocol: (§1) Male rats (Sprague-Dawley, 250-300 g) were killed by CO2 asphyxiation. The thoracic aorta was then cleared of surrounding tissues and excised from aortic arch to the diaphragm. From each vessel, conjunctive tissues were removed and the clean vessel was cut into 4 mm rings. The endothelium was removed by gently rubbing the vessel's intimal surface. All preparations were placed in 5 ml organ baths filled with oxygenated normal Krebs-Henselheit solution. Contractile responses to 40 mM KCl were used as control at the beginning and at the end of each experiment. Agonistic activity was measured by increasing the concentration of the peptide in the organ chamber (3×10^−11-3×10^−6 M). For antagonist behaviour, thoracic aortic rings were first exposed to URP derivative over a period of 15 min, and then cumulative concentration-response curves to hUII, URP or ET-1 (10^−10-3×10^−6 M) were constructed. The amplitude of the contraction induced by each concentration of peptide was expressed as a percentage of the KCl-induced contraction. Finally, the ability of the antagonist to reverse the hUII-induced contraction was also evaluated. Vessels were pre-contracted with 4 nM hUII (pre-determined EC80) and after the maximum contraction was attained, contractile tone was reversed by adding increasing log unit concentrations of URP derivative.

rat thoracic aorta rings [2] = test system: rat thoracic aorta rings
Protocol: Binding and functional experiments were performed at least in triplicate and data, expressed as mean±S.E.M, were analyzed using the Prism software (Graph Pad Software, San Diego, Calif.). In all experiments, n represents the total number of animals studied or individual assays performed. The EC50, pEC50, pIC50 values as well as the Emax value were determined from the concentration-response curves using a sigmoidal dose-response fit with variable slope. […] The slope is calculated from the double reciprocal plot of equiactive concentrations of agonist in the presence and absence of antagonist.

rat thoracic aorta rings [3] = assay: Antagonism of UII- or URP-induced contraction of rat aortic ring; conditions: pretreatment 10^−6M, 15 min
Protocol: as §1, with “derivative. […] Binding and functional experiments were performed at least in triplicate and data, expressed as mean±S.E.M, were analyzed using the Prism software (Graph Pad Software, San Diego, Calif.). In all experiments, n represents the total number of animals studied or individual assays performed. The EC50, pEC50, pIC50 values as well as the Emax value were determined from the concentration-response curves using a sigmoidal dose-response fit with variable slope. Non-competitive antagonist affinities (pKb) were determined using the method of Gaddum where equiactive concentrations of agonist, in the absence or presence of URP derivative, were compared in a linear regression. The resulting slope was used to calculate the equilibrium constant Kb using the following equation: Kb=[B]/(slope−1); where [B] is the antagonist concentration. The slope is calculated from the double reciprocal plot of equiactive concentrations of agonist in the presence and absence of antagonist.” for “derivative.”

Row | ET-1 pEC50 (rat thoracic aorta rings [1]) | Compound | ET-1 Emax (rat thoracic aorta rings [1]) | Agonist behaviour in aortic ring contraction (in words) (rat thoracic aorta rings [2]) | Effect on URP-associated contraction curve (in words) (rat thoracic aorta rings [3]) | Effect on rUII-induced contraction (in words) (rat thoracic aorta rings [3])
1 | 8.06±0.15 | endothelin-1 [ET-1, reference compound] | 119±6 |  |  | 
2 |  | CC(NC(=O)C(NC(=O)CNC(=O)C(Cc1c[nH]cn1)NC(=O)C1CCC(=O)N1)C(C)O)C(=O)N1CCCC1C(=O)NC(CCC(=O)O)C(N)=O (stereo not drawn) [rUII(1-7), Pyr-His-Gly-Thr-Ala-Pro-Glu-NH2] ([pGlu]HGTAPE-NH2; configuration not given here) |  | unable to induce the contraction of rat aortic rings | significant rightward shift | did not significantly alter
